Measurements published in patent US7456205B2, “Benzopyran compounds, process for preparing the same and their use” (Shanghai Institute of Materia Medica, Chinese Academy of …, priority 2003, dated 2008).

What was measured:
3T3-L1 cells = test: Insulin-sensitizing activity in 3T3-L1 preadipocyte model, triglyceride accumulation as indication of cell differentiation; type: cell-based; details: for The Percentage of Triglyceride Increased in 3T3-L1 Cells: with IBMX, DEX and insulin, average of 3 pores (rosiglitazone n = 22, mean ± SD); for insulin-sensitizing activity: verbal summary of Table 2
Description: The insulin-sensitizing agents can promote the differentiation of pre-adipocytes toward adipocyte. Thus insulin-sensitizing agents could be identified with the insex of the differentiation of pre-adipocytes. Following the methods reported in the literature [Kletzein B F. Mol. Pharm. 1991, 41, 393], the insulin-sensitizing activities of the compounds of formula (I) of the present invention were evaluated in 3T3-L1 preadipocyte model with triglyceride accumulation in cells as the indication of cell differentiation.
The 3T3-L1 cells were incubated in DMEM (Dulbecco's Modified Eagle's Medium) containing 10% NBS (newborn calf serum) and subcultured every 3 days. The cells were transferred to 24-pore plates, and after the pores were filled completely, the cells were treated with IBMX (isobutylmethylxanthine) (0.5 mmol/L), DEX (dexamethasone) (1 μmol/L) and insulin (1.0 μmol/L) for 48 h, meanwhile different amounts of test compounds were added into. The cells were incubated continuously until the end of the experiment. Cells were collected and the contents of triglyceride and protein therein were determined by colorimetry. Enhancements of triglyceride in cells after drug-administrating were calculated.
The positive control group was rosiglitazone, and the solvent control group was a culturing medium containing 0.1% of DMSO. […] Thus, the derivatives of the benzopyran compounds of the present invention can be used to control the blood glucose level in type II diabetes patients and inhibit the occurrence of complications caused by the type II diabetes.

COC(=O)c1cc2ccc(OCc3ccccc3)cc2oc1=O [Compound 1, 7-benzyloxyl-2-oxo-2H-1-benzopyran-3-carboxylic acid methyl ester]
melting point: 129 to 130 °C
The Percentage of Triglyceride Increased in 3T3-L1 Cells (3T3-L1 cells; test compound 0.01 μmol/L): −5.73%
The Percentage of Triglyceride Increased in 3T3-L1 Cells (3T3-L1 cells; test compound 0.1 μmol/L): −0.43%
The Percentage of Triglyceride Increased in 3T3-L1 Cells (3T3-L1 cells; test compound 1 μmol/L): 7.93%

O=C(O)c1cc2ccc(OCc3ccccc3)cc2oc1=O [Compound 2, 7-benzyloxyl-2-oxo-2H-1-benzopyran-3-carboxylic acid]
The Percentage of Triglyceride Increased in 3T3-L1 Cells (3T3-L1 cells; test compound 0.01 μmol/L): 20.86%
The Percentage of Triglyceride Increased in 3T3-L1 Cells (3T3-L1 cells; test compound 0.1 μmol/L): 18.31%
The Percentage of Triglyceride Increased in 3T3-L1 Cells (3T3-L1 cells; test compound 1 μmol/L): 14.63%

COC(=O)c1cc2ccc(OCCc3ccccc3)cc2oc1=O [Compound 3, 7-(2-phenyl)ethoxyl-2-oxo-2H-1-benzopyran-3-carboxylic acid methyl ester]
melting point: 100 to 101 °C
The Percentage of Triglyceride Increased in 3T3-L1 Cells (3T3-L1 cells; test compound 0.01 μmol/L): 4.57%
The Percentage of Triglyceride Increased in 3T3-L1 Cells (3T3-L1 cells; test compound 0.1 μmol/L): −2.61%
The Percentage of Triglyceride Increased in 3T3-L1 Cells (3T3-L1 cells; test compound 1 μmol/L): −5.50%

CCc1ccc(CCOc2ccc3cc(C(=O)OC)c(=O)oc3c2)nc1 [Compound 4, 7-[2-(5-ethyl-2-pyridine)ethyoxyl]-2-oxo-2H-1-benzopyran-3-carboxylic acid methyl ester]
The Percentage of Triglyceride Increased in 3T3-L1 Cells (3T3-L1 cells; test compound 0.01 μmol/L): 7.26%
The Percentage of Triglyceride Increased in 3T3-L1 Cells (3T3-L1 cells; test compound 0.1 μmol/L): 11.55%
The Percentage of Triglyceride Increased in 3T3-L1 Cells (3T3-L1 cells; test compound 1 μmol/L): 17.71%

COC(=O)c1cc2ccc(OCCn3ccc4ccccc43)cc2oc1=O [Compound 5, 7-[2-(1-indole)ethoxyl]-2-oxo-2H-1-benzopyran-3-carboxylic acid methyl ester]
The Percentage of Triglyceride Increased in 3T3-L1 Cells (3T3-L1 cells; test compound 0.01 μmol/L): 7.88%
The Percentage of Triglyceride Increased in 3T3-L1 Cells (3T3-L1 cells; test compound 0.1 μmol/L): 27.58%
The Percentage of Triglyceride Increased in 3T3-L1 Cells (3T3-L1 cells; test compound 1 μmol/L): 34.74%

COC(=O)c1cc2ccc(OCCc3nc(-c4ccccc4)oc3C)cc2oc1=O [Compound 6, 7-[2-(5-methyl-2-phenyl-4-oxazole)ethoxyl]-2-oxo-2H-1-benzopyran-3-carboxylic acid methyl ester]
The Percentage of Triglyceride Increased in 3T3-L1 Cells (3T3-L1 cells; test compound 0.01 μmol/L): 27.04%
The Percentage of Triglyceride Increased in 3T3-L1 Cells (3T3-L1 cells; test compound 0.1 μmol/L): 67.24%
The Percentage of Triglyceride Increased in 3T3-L1 Cells (3T3-L1 cells; test compound 1 μmol/L): 52.45%
insulin-sensitizing activity (3T3-L1 cells): stronger insulin-sensitizing activity

O=C(O)c1cc2ccc(OCCc3ccccc3)cc2oc1=O [Compound 7, 7-(2-phenyl)ethoxyl-2-oxo-2H-1-benzopyran-3-carboxylic acid]
The Percentage of Triglyceride Increased in 3T3-L1 Cells (3T3-L1 cells; test compound 0.01 μmol/L): 7.97%
The Percentage of Triglyceride Increased in 3T3-L1 Cells (3T3-L1 cells; test compound 0.1 μmol/L): −1.10%
The Percentage of Triglyceride Increased in 3T3-L1 Cells (3T3-L1 cells; test compound 1 μmol/L): −6.29%

CCc1ccc(CCOc2ccc3cc(C(=O)O)c(=O)oc3c2)nc1 [Compound 8, 7-[2-(5-ethyl-2-pyridine)ethyoxyl]-2-oxo-2H-1-benzopyran-3-carboxylic acid]
The Percentage of Triglyceride Increased in 3T3-L1 Cells (3T3-L1 cells; test compound 0.01 μmol/L): 12.25%
The Percentage of Triglyceride Increased in 3T3-L1 Cells (3T3-L1 cells; test compound 0.1 μmol/L): 3.67%
The Percentage of Triglyceride Increased in 3T3-L1 Cells (3T3-L1 cells; test compound 1 μmol/L): 5.66%

O=C(O)c1cc2ccc(OCCn3ccc4ccccc43)cc2oc1=O [Compound 9, 7-[2-(1-indole)ethoxyl]-2-oxo-2H-1-benzopyran-3-carboxylic acid]
The Percentage of Triglyceride Increased in 3T3-L1 Cells (3T3-L1 cells; test compound 0.01 μmol/L): −5.25%
The Percentage of Triglyceride Increased in 3T3-L1 Cells (3T3-L1 cells; test compound 0.1 μmol/L): −8.42%
The Percentage of Triglyceride Increased in 3T3-L1 Cells (3T3-L1 cells; test compound 1 μmol/L): −12.95%

Cc1oc(-c2ccccc2)nc1CCOc1ccc2cc(C(=O)O)c(=O)oc2c1 [Compound 10, 7-[2-(5-methyl-2-phenyl-4-oxazole)ethoxyl]-2-oxo-2H-1-benzopyran-3-carboxylic acid]
The Percentage of Triglyceride Increased in 3T3-L1 Cells (3T3-L1 cells; test compound 0.01 μmol/L): −3.28%
The Percentage of Triglyceride Increased in 3T3-L1 Cells (3T3-L1 cells; test compound 0.1 μmol/L): 26.68%
The Percentage of Triglyceride Increased in 3T3-L1 Cells (3T3-L1 cells; test compound 1 μmol/L): 32.30%

COC(=O)C1Cc2ccc(OCCc3ccccc3)cc2OC1=O (centres unmarked) [Compound 11, 7-(2-phenyl)ethoxyl-3,4-dihydro-2-oxo-4H-1-benzopyran-3-carboxylic acid methyl ester]
The Percentage of Triglyceride Increased in 3T3-L1 Cells (3T3-L1 cells; test compound 0.01 μmol/L): −9.13%
The Percentage of Triglyceride Increased in 3T3-L1 Cells (3T3-L1 cells; test compound 0.1 μmol/L): 12.90%
The Percentage of Triglyceride Increased in 3T3-L1 Cells (3T3-L1 cells; test compound 1 μmol/L): 14.10%

CCc1ccc(CCOc2ccc3c(c2)OC(=O)C(C(=O)OC)C3)nc1 (centres unmarked) [Compound 12, 7-[2-(5-ethyl-2-pyridine)ethyoxyl]-3,4-dihydro-2-oxo-4H-1-benzopyran-3-carboxylic acid methyl ester]
The Percentage of Triglyceride Increased in 3T3-L1 Cells (3T3-L1 cells; test compound 0.01 μmol/L): 4.13%
The Percentage of Triglyceride Increased in 3T3-L1 Cells (3T3-L1 cells; test compound 0.1 μmol/L): −2.40%
The Percentage of Triglyceride Increased in 3T3-L1 Cells (3T3-L1 cells; test compound 1 μmol/L): 2.53%

COC(=O)C1Cc2ccc(OCCc3nc(-c4ccccc4)oc3C)cc2OC1=O (centres unmarked) [Compound 13, 7-[2-(5-methyl-2-phenyl-4-oxazole)ethoxyl]-3,4-dihydro-2-oxo-4H-1-benzopyran-3-carboxylic acid methyl ester]
The Percentage of Triglyceride Increased in 3T3-L1 Cells (3T3-L1 cells; test compound 0.01 μmol/L): 28.33%
The Percentage of Triglyceride Increased in 3T3-L1 Cells (3T3-L1 cells; test compound 0.1 μmol/L): 52.92%
The Percentage of Triglyceride Increased in 3T3-L1 Cells (3T3-L1 cells; test compound 1 μmol/L): 64.69%
insulin-sensitizing activity (3T3-L1 cells): stronger insulin-sensitizing activity

COC(=O)C1Cc2ccc(OCc3ccc(C(F)(F)F)cc3)cc2OC1=O (centres unmarked) [Compound 14, 7-(4-trifluoromethylbenzyloxyl)-3,4-dihydro-2-oxo-4H-1-benzopyran-3-carboxylic acid methyl ester]
The Percentage of Triglyceride Increased in 3T3-L1 Cells (3T3-L1 cells; test compound 0.01 μmol/L): 19.33%
The Percentage of Triglyceride Increased in 3T3-L1 Cells (3T3-L1 cells; test compound 0.1 μmol/L): −16.81%
The Percentage of Triglyceride Increased in 3T3-L1 Cells (3T3-L1 cells; test compound 1 μmol/L): −2.69%

COC(=O)c1cc2ccc(OCCN(C)C(=O)OC(C)(C)C)cc2oc1=O [Compound 15, 7-[2-(N-tert-butoxycarbonyl-N-methylamino)ethoxyl]-2-oxo-2H-1-benzopyran-3-carboxylic acid methyl ester]
melting point: 128 to 129 °C
The Percentage of Triglyceride Increased in 3T3-L1 Cells (3T3-L1 cells; test compound 0.01 μmol/L): 26.38%
The Percentage of Triglyceride Increased in 3T3-L1 Cells (3T3-L1 cells; test compound 0.1 μmol/L): 26.73%
The Percentage of Triglyceride Increased in 3T3-L1 Cells (3T3-L1 cells; test compound 1 μmol/L): 44.70%

COC(=O)C1Cc2ccc(OCCN(C)c3nc4ccccc4o3)cc2OC1=O (centres unmarked) [Compound 16, 7-[2-[N-methyl-N-(2-benzoxazole)amino]ethoxyl]-3,4-dihydro-2-oxo-4H-1-benzopyran-3-carboxylic acid methyl ester]
melting point: 88 to 90 °C
The Percentage of Triglyceride Increased in 3T3-L1 Cells (3T3-L1 cells; test compound 0.01 μmol/L): 11.01%
The Percentage of Triglyceride Increased in 3T3-L1 Cells (3T3-L1 cells; test compound 0.1 μmol/L): 29.32%
The Percentage of Triglyceride Increased in 3T3-L1 Cells (3T3-L1 cells; test compound 1 μmol/L): 25.09%

Cc1oc(-c2ccccc2)nc1CCOc1ccc2cc(C(=O)OC(C)(C)C)c(=O)oc2c1 [Compound 17, 7-[2-(5-methyl-2-phenyl-4-oxazole)ethoxyl]-2-oxo-2H-1-benzopyran-3-carboxylic acid tert-butyl ester]
The Percentage of Triglyceride Increased in 3T3-L1 Cells (3T3-L1 cells; test compound 0.01 μmol/L): 18.33%
The Percentage of Triglyceride Increased in 3T3-L1 Cells (3T3-L1 cells; test compound 0.1 μmol/L): 28.20%
The Percentage of Triglyceride Increased in 3T3-L1 Cells (3T3-L1 cells; test compound 1 μmol/L): 33.01%
insulin-sensitizing activity (3T3-L1 cells): stronger insulin-sensitizing activity

Cc1oc(-c2ccccc2)nc1CCOc1ccc2c(c1)OC(=O)C(C(=O)O)C2 (centres unmarked) [Compound 18, 7-[2-(5-methyl-2-phenyl-4-oxazole)ethoxyl]-3,4-dihydro-2-oxo-4H-1-benzopyran-3-carboxylic acid]
The Percentage of Triglyceride Increased in 3T3-L1 Cells (3T3-L1 cells; test compound 0.01 μmol/L): 18.65%
The Percentage of Triglyceride Increased in 3T3-L1 Cells (3T3-L1 cells; test compound 0.1 μmol/L): 29.28%
The Percentage of Triglyceride Increased in 3T3-L1 Cells (3T3-L1 cells; test compound 1 μmol/L): 30.24%
insulin-sensitizing activity (3T3-L1 cells): stronger insulin-sensitizing activity
